Assay results as given in patent EP4789715A2, “METHODS FOR TREATING NEOINTIMAL HYPERPLASIA USING F11R/JAM-A INHIBITORS” (The Research Foundation for The State University of New York, priority 2019, dated 2026).
Non-standard residues stand in square brackets, D forms with d. Residues, ends and D or L forms follow the SMILES beside them.

Test system: uremic C57BL/6 mice
Assay: carotid artery ligation (mid-focal LCA stenosis) model of neointimal hyperplasia in 5/6-nephrectomized uremic mice
Assay type: in vivo
Details: for mean Intima Index (ratio of intima area/intima + media area): intraperitoneal injections for 21 days, n=7
Method: Carotid artery ligation was performed on 14 uremic C57BL/6 mice that underwent 5/6 nephrectomy. One week after nephrectomy, partial ligation of the left carotid artery (LCA) was performed on each mouse. Focal LCA stenosis was created by placing 9-0 nylon suture at 1mm proximal to the carotid bifurcation (mid-focal stenosis) around the artery using a 35-gauge blunt needle (World precision Instruments, Inc., Sarasota, FL). Then the needle mandrel was gently removed to restore blood flow.
Mice were fed a regular mouse diet and divided into 2 groups of 7 mice each; the experimental group received Peptide 4D while the Control group received saline injections by intraperitoneal route for 21 days, as this was the time shown in earlier studies to correlate with development of neointimal hyperplasia following partial ligation of the carotid artery.
The mice were then euthanized on day 21 and both LCA and right carotid artery (RCA) were excised for analysis. Specimens were embedded in paraffin. Serial sections (6 µm thick) were collected at 200-µm intervals of the LCA from mid-focal stenosis as well as from the RCA serving as lesion control. Data were analyzed qualitatively and quantitatively using Image J software. The two groups were compared for differences in mean Intima Area and Intima Index, defined as the ratio of intima area divided by intima plus media area.

What does the source list for `CC(C)[C@H](NC(=O)[C@H](CO)NC(=O)[C@H](N)CCCCN)C(=O)N[C@H](C(=O)N[C@H](CCCNC(=N)N)C(=O)N[C@@H](CCC(=O)O)C(=O)N[C@@H](CC(=O)O)C(=O)N[C@H](C(=O)NCC(=O)N[C@H](C(=O)N[C@@H](Cc1ccc(O)cc1)C(=O)N[C@H](C(=O)N[C@@H](CS)C(N)=O)[C@@H](C)O)[C@@H](C)O)[C@@H](C)O)[C@@H](C)O` [Peptide 4D, NH2-(dK)-SVT-(dR)-EDTGTYTC-CONH2] (H-[dK]SVT[dR]EDTGTYTC-NH2)?
experimental mice LCA with severe neointimal hyperplasia (7 treated mice, day 21, all LCA in control mice developed severe neointimal hyperplasia, two with complete luminal occlusion): only one had severe neointimal hyperplasia; mean Intima Index (ratio of intima area/intima + media area) (average from 10 LCA locations, FIG. 6, control (0.27 + 0.13), p = 0.0079): significantly less mean intima/intima + media ratio; mean Intima Index (ratio of intima area/intima + media area) (average from 10 LCA locations, FIG. 6, control (0.27 + 0.13), p = 0.0079, listed as peptide 4D): 0.089 + 0.081; arterial lumen (H&E-stained cross sections of the carotid artery) (different distances from the point of ligation, compared to occluded lumens in the controls, FIGs. 1A-1B): arterial lumen is preserved; mean Intima Index (ratio of intima area/intima + media area) (from 1 LCA location with biggest focal stenosis, FIG. 7, control (0.47 + 0.15), p = 0.039): 0.31 + 0.14; intima area relative to distance from the ligation point (mid focal stenosis morphometry of LCA, 10 locations, treated versus control untreated uremic mice, FIG. 4): significantly smaller; neointimal hyperplasia (uremic C57BL/6 mice, carotid ligation model, 21 days of administration, overall conclusion in words): significantly inhibits neointimal hyperplasia
